Where two headings read alike, the source gives them in different places.
Legend:
[1] = tested on: PBMCs; test: Total number of live cells (proliferation) by trypan blue staining at day 6; format: cell-based, human; settings: for Fig 6B: total live cells relative to DMSO+CD3/28: DMSO+CD3/28 = 100
Protocol: Some of our candidate LPAs can block the effects of T cell activation, which could affect T cell proliferation. Therefore, we evaluated the extent to which variations in the level of infected cells may contribute to reductions in different HIV RNA transcripts. We measured the total number of viable cells (as a measure of proliferation) and the conserved U3-U5 LTR HIV DNA region (as a measure of total infection frequency) at day 6.
(A) After 6 days, the total number of live cells was measured by trypan blue staining and then normalized to the levels of the activated DMSO (% of activated DMSO). All conditions were tested in the presence of CD3^+/CD28^+ T cell–activating beads, except for the unactivated DMSO condition. Bars indicate medians, and different colors indicate individual study participants. Comparisons were performed using Wilcoxon’s signed-rank test. (B) Total cellular DNA was extracted, and the levels of U3-U5 HIV DNA were measured to quantify infection frequency at 6 days. HIV DNA levels were normalized to copies per 10^6 cells using the input of cellular DNA (assuming 1 μg of total DNA corresponds to 160,000 cells) and then normalized to the activated DMSO control (% of activated DMSO). Bars indicate medians, and different colors indicate individual study participants.

[2] = tested on: PolyA HIV RNA in the supernatant; test: Supernatant viral RNA (polyadenylated HIV RNA, RT-ddPCR) at day 6 after T cell activation; format: cell-based; settings: for Polyadenylated HIV RNA in supernatant (Fig 5): day 6
Protocol: PBMCs were cultured in the presence of individual drugs in DMSO or DMSO alone as control, activated (anti-CD3/CD28), and assessed for levels of PolyA HIV RNA in the supernatant at day 6.
Each drug was tested in PBMCs from 6 ART-suppressed study participants (except for triptolide, n = 5). PBMCs were aliquoted into wells at 6 × 10^6 cells/well. After activation, the cells were cultured with antiretrovirals in the presence of individual drugs in DMSO or DMSO alone as control. All conditions were tested in the presence of CD3/28 T cell–activating beads, except for the unactivated DMSO condition. After 6 days, RNA was extracted from the culture supernatant. Polyadenylated HIV RNA in the supernatant was quantified by RT-ddPCR, expressed as copies/mL, and then normalized to the levels of the activated DMSO (% of activated DMSO). Medians and IQR are presented, as well as the individual values per study participant in different colors. Comparisons were performed using Wilcoxon’s signed-rank test.
For quantification of cell-associated HIV transcripts, PBMCs were harvested either after 24 hours or after 6 days. The cell viabilities were measured by trypan blue staining; then the cells were pelleted by centrifuging at 300g for 6 minutes and stored at –80°C. For quantification of virion-associated HIV RNA, cell culture supernatant was collected from 6 × 10^6 PBMCs that were treated and activated for 6 days as described above. Residual cells and cellular debris were subsequently removed from the supernatant by differential centrifugation (300g for 6 minutes, then 20,000g for 10 minutes), and the supernatant was stored at –80°C.
Total cellular DNA and RNA were extracted in parallel using Trireagent (Molecular Research Center) according to the manufacturer’s instructions, except for study participants 2147 and 2461 (Figure 4), for whom DNA and RNA were extracted using the QIAGEN AllPrep DNA/RNA/miRNA Universal Kit with on-column DNase I treatment of the RNA and the manufacturer’s modification to enhance recovery of short transcripts. RNA and DNA concentrations were measured using UV spectrophotometry (NanoDrop One, Thermo Fisher Scientific). Total initiated HIV (TAR) transcripts were quantified by a 3-step polyadenylation RT-ddPCR as described previously ([8], [84]). HIV 5′ elongated (LLTR), midtranscribed (Pol), completed (PolyA), and multiply spliced (TatRev) transcripts were quantified by a 2-step RT-ddPCR as previously described ([8]). The levels of each HIV transcript were normalized to 1 μg of total cellular RNA and expressed as a percentage of the (activated) DMSO control. To quantify virion-associated RNA in supernatant, RNA was extracted from 400 μL supernatant using Trireagent-LS (Molecular Research Center) according to the manufacturer’s instructions. Levels of U3-polyadenylated HIV RNA were measured in the supernatant by RT-ddPCR, normalized to copies/mL, and expressed as a percentage of the activated DMSO. For measuring the HIV infection frequency at day 6, the HIV DNA U3-U5 LTR region was quantified by using ddPCR as described previously ([8]). HIV DNA copies were normalized to cell numbers according to the mass of DNA input per well (calculated from the DNA concentration and input volume) ([85]).

[3] = tested on: HIV transcripts (PolyA, TatRev); test: Dose-response curves of LPAs: polyadenylated and multiply spliced HIV transcripts 24 hours after activation; format: cell-based; settings: for MS Tat-Rev (dose-response) / PolyA (dose-response): 24 hours, 1 participant per drug; for IC50: 24 h, PBMCs from 1 participant per drug
Protocol: The IC50 was determined based on the reduction in completed (PolyA) as well as multiply spliced (TatRev) HIV transcripts relative to activated DMSO (Table 1).
Figure 2 Dose-response curves of LPAs. Dose-response curves for each drug were generated in PBMCs from 1 ART-suppressed study participant per drug. PBMCs were aliquoted into wells at 6 × 10^6 cells/well, activated, and cultured with antiretrovirals in the presence of DMSO alone (no drug) or varying concentrations of individual drugs in DMSO. After 24 hours, the levels of polyadenylated and multiply spliced HIV transcripts were quantified by RT-ddPCR, normalized to 1 μg of total cellular RNA, and expressed as a percentage of the activated DMSO control (% of activated DMSO).

pladienolide B
Total live cell numbers (proliferation) compared with activated DMSO (in words) ([1]; day 6, Figure 6A): significantly lower
Fig 6B: total live cells relative to DMSO+CD3/28 ([1]; participant 2027): 130.18
Fig 6B: total live cells relative to DMSO+CD3/28 ([1]; participant 2147a): 87.14
Fig 6B: total live cells relative to DMSO+CD3/28 ([1]; participant 2147b): 432.65
Fig 6B: total live cells relative to DMSO+CD3/28 ([1]; participant 2161): 52.54
Fig 6B: total live cells relative to DMSO+CD3/28 ([1]; participant 2461): 69.04
Fig 6B: total live cells relative to DMSO+CD3/28 ([1]; participant 2747): 68.1
Total number of live cells (Fig 6A) ([1]; study participant 150a, day 6): 26.64 % of activated DMSO
Total number of live cells (Fig 6A) ([1]; study participant 156, day 6): 40.97 % of activated DMSO
Total number of live cells (Fig 6A) ([1]; study participant 163, day 6): 70.82 % of activated DMSO
Total number of live cells (Fig 6A) ([1]; study participant 2027, day 6): 28.6 % of activated DMSO
Total number of live cells (Fig 6A) ([1]; study participant 2147a, day 6): 113.84 % of activated DMSO
Total number of live cells (Fig 6A) ([1]; study participant 2147b, day 6): 53.49 % of activated DMSO
Total number of live cells (Fig 6A) ([1]; study participant 2161, day 6): 58.44 % of activated DMSO
Total number of live cells (Fig 6A) ([1]; study participant 2461, day 6): 29.57 % of activated DMSO
Total number of live cells (Fig 6A) ([1]; study participant 2747, day 6): 105.45 % of activated DMSO
Total number of live cells (Fig 6A) ([1]; study participant 2750, day 6): 17.9 % of activated DMSO
Viral RNA in supernatant (PolyA HIV RNA), median relative to activated DMSO ([2]; day 6 after anti-CD3/CD28 activation, Figure 5): 3.8%
Polyadenylated HIV RNA in supernatant (Fig 5) ([2]; study participant 150a): 17.33 % of activated DMSO
Polyadenylated HIV RNA in supernatant (Fig 5) ([2]; study participant 156): 7.61 % of activated DMSO
Polyadenylated HIV RNA in supernatant (Fig 5) ([2]; study participant 163): 15.15 % of activated DMSO
Polyadenylated HIV RNA in supernatant (Fig 5) ([2]; study participant 2027): 63.66 % of activated DMSO
Polyadenylated HIV RNA in supernatant (Fig 5) ([2]; study participant 2147b): 0 % of activated DMSO
Polyadenylated HIV RNA in supernatant (Fig 5) ([2]; study participant 2161): 0 % of activated DMSO
Polyadenylated HIV RNA in supernatant (Fig 5) ([2]; study participant 2747): 0 % of activated DMSO
Polyadenylated HIV RNA in supernatant (Fig 5) ([2]; study participant 2750): 0 % of activated DMSO
MS Tat-Rev (dose-response) ([3]; dose 0.1 nM): 34.26 % of activated DMSO
PolyA (dose-response) ([3]; dose 0.1 nM): 47.95 % of activated DMSO
MS Tat-Rev (dose-response) ([3]; dose 1 nM): 17.07 % of activated DMSO
PolyA (dose-response) ([3]; dose 1 nM): 43.55 % of activated DMSO
MS Tat-Rev (dose-response) ([3]; dose 10 nM): 0.76 % of activated DMSO
PolyA (dose-response) ([3]; dose 10 nM): 4 % of activated DMSO
IC50 ([3]; reduction in PolyA HIV transcripts relative to activated DMSO, read-out: Completed (PolyA) IC50): 0.18 nM
IC50 ([3]; reduction in TatRev HIV transcripts relative to activated DMSO, read-out: Multiply spliced (TatRev) IC50): 0.06 nM

Reference: paper PMC11466185, “Mechanisms and efficacy of small molecule latency-promoting agents to inhibit HIV reactivation ex vivo” (JCI Insight, 2024)
